Source: paper PMC12569736 (Journal of Cosmetic Dermatology, 2025)
pIC50: −log10 of the molar value.

Columns and labels:
MNT‐1 cells = assay: Melanin content in MNT‐1 cells after 6 days of treatment; assay type: cell-based, human; conditions: for inhibition of melanin production: 0.37 μM; for inhibition of melanin production / inhibition at 1.1 µM / inhibition at 3.3 µM / inhibition at 10 µM: 6 days; for pIC50 / inhibition at 1.1 µM / inhibition at 3.3 µM / inhibition at 10 µM: Homo sapiens; for pIC50: 144 h, MNT‐1, 6 days, read-out: IC50 of melanin production; for inhibition at 1.1 µM / inhibition at 3.3 µM / inhibition at 10 µM: MNT-1, 144 h, read-out: inhibition of melanin production
Procedure: MNT‐1 cells were exposed to varying concentrations of test compounds for 6 days. After treatment, cells were harvested and lysed in RIPA buffer on ice for 20 min. Lysates were centrifuged at 13 000 rpm for 10 min at 4°C, and the supernatant was collected. Protein concentration was quantified using a BCA Protein Assay Kit (Thermo Fisher). To extract melanin, cell pellets were dissolved in 1 M NaOH and incubated for 3 h at 80°C. Absorbance at 405 nm was measured using a Synergy H1 Hybrid Reader. Melanin content was quantified by referencing a standard curve of synthetic melanin (maximum concentration 50 μg/mL, 2‐fold gradient dilution, 8 concentration points). Melanin content was normalized to protein concentration (μg melanin/mg protein), and IC50 values were calculated using GraphPad software.
FIGURE 3 Inhibition of melanin production in MNT‐1 by KT‐939, Thiamidol, and 4‐butylresorcinol. MNT‐1 cells were treated with different concentrations of KT‐939, Thiamidol, or 4‐butylresorcinol for 6 days. The melanin content was quantified based on the standard curve of melanin, and the melanin content per mg of protein was utilized for IC50 calculations with GraphPad software.

human tyrosinase (hTYR) = target: T1, human tyrosinase (hTYR) (Homo sapiens, UniProt P14679); assay: L‐DOPA oxidation assay for tyrosinase activity (MNT‐1 cell lysate); assay type: biochemical; conditions: for pIC50: MNT‐1 lysate, L‐DOPA 4 mM, pH 6.9, read-out: IC50 against hTYR; for inhibition at 0.4 µM: read-out: inhibitory activity against hTYR compared to the control; for inhibitory effect on hTYR at maximum tested concentration: up to 33.3 μM
T1 construct: tyrosinase enzyme solution derived from MNT‐1 cells; endogenous in cells; host or cells: MNT-1 human melanoma cell line (crude lysate supernatant)
T1 sequence (P14679 19-529): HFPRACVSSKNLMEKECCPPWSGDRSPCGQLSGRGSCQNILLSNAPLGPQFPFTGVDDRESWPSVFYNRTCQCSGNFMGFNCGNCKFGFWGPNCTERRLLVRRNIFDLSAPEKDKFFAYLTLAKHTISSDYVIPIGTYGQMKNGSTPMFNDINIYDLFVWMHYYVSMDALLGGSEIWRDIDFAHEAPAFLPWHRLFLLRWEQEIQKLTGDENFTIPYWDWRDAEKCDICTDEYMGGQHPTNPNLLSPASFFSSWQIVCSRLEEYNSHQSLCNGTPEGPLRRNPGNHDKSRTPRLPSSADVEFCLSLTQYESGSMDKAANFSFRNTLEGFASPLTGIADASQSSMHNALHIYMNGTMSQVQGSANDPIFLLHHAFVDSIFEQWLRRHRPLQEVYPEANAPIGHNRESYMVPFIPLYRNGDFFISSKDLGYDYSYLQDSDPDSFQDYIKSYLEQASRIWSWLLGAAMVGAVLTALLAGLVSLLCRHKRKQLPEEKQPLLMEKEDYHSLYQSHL
Procedure: The hTYR‐mediated L‐DOPA oxidation assay was performed according to Winder and Harris. MNT‐1 cells were resuspended in 0.05 M sodium phosphate buffer (pH 6.9) and sonicated for 1 min. After incubation on ice for 3–5 min, the mixture underwent a second sonication. The lysate was centrifuged at 13 000 rpm for 15 min at 4°C, and the supernatant was collected and kept on ice.
For the assay, 20 μL of crude enzyme solution and 80 μL sodium phosphate buffer were added to a 96‐well plate and centrifuged at 1000 rpm for 30 s. Subsequently, 2 μL of different concentrations of test compounds were added to each well, followed by centrifugation at 1000 rpm for 30 s. Finally, 100 μL L‐DOPA (final concentration 4 mM) was added to initiate the reaction. The microplate reader (Synergy H1 Hybrid Reader, BioTek) was used to monitor the reaction at 26°C, measuring absorbance at 475 nm every minute for 60 min. IC50 values were calculated using GraphPad software based on Vmax values from the kinetic curves.
The L‐DOPA tyrosinase assay was performed using a tyrosinase enzyme solution derived from MNT‐1 cells in 50 mM sodium phosphate buffer (pH 6.9), with a substrate (L‐DOPA) concentration of 4 mM and various concentrations of inhibitors as indicated. Data represent mean ± standard deviation of three independent experiments.

[1] = system: NRF2/ARE signaling pathway; assay: NRF2/ARE‐luciferase reporter assay in HEK293T cells; assay type: cell-based, human; conditions: 10 µM, 48 h, relative to DMSO
Procedure: The NRF2‐responsive firefly luciferase reporter plasmid (pGL4.27_ARE NRF2‐SPE) and Renilla luciferase control plasmid (pRL‐TK) were co‐transfected into HEK293T cells using Lipofectamine 2000. After 24 h, transfected cells were seeded into 96‐well plates and incubated overnight. Test compounds (10 μM) were added, and cells were incubated for an additional 48 h. Luciferase activities were measured using the Dual‐Lumi Luciferase Reporter Assay Kit (Beyotime Biotechnology), following the manufacturer's instructions.
FIGURE 6 KT‐939 activates the ARE/NRF2 signaling pathway. HEK293T cells transfected with an NRF2‐responsive firefly luciferase reporter were treated with 10 µM of KT‐939, hydroquinone (Hq), 377, or 4‐butylresorcinol for 48 h. Luminescence signals were normalized to renilla and expressed relative to DMSO control. *** p < 0.001 vs DMSO.

melasma = system: melasma; parameters: method as in PMID 34676600; conditions: moderate‐to‐severe melasma, 24 weeks of application, cited from earlier work
MelanoDerm skin model = system: MelanoDerm skin model; parameters: method as in PMID 29427586; conditions: cited from earlier work
hTYR enzyme = target: hTYR enzyme; parameters: method as in PMID 29427586; conditions: purified hTYR; read-out: IC50 against the hTYR enzyme; cited from earlier work

CCCCc1ccc(O)cc1O [4‐butylresorcinol]
inhibition of melanin production (MNT‐1 cells): neither Thiamidol nor 4‐butylresorcinol showed inhibitory activity
pIC50 (MNT‐1 cells): 5.10
inhibition at 1.1 µM (MNT‐1 cells): 15.8%
inhibition at 3.3 µM (MNT‐1 cells): 32.6%
inhibition at 10 µM (MNT‐1 cells): 48.4%
pIC50 (human tyrosinase (hTYR)): 5.15
inhibition at 0.4 µM (human tyrosinase (hTYR); at 0.4 μM): 9.7%
NRF2 signaling pathway activation (luciferase reporter) [1]: no effect on NRF2 activation

CC(C)C(=O)Nc1nc(-c2ccc(O)cc2O)cs1 [Thiamidol, isobutylamido thiazolyl resorcinol]
tolerability (melasma): favorable tolerability
melasma severity compared to baseline and vehicle (melasma; Fitzpatrick phototypes III–V): significantly reduced melasma severity
inhibition of melanin production (MNT‐1 cells): neither Thiamidol nor 4‐butylresorcinol showed inhibitory activity
pIC50 (MNT‐1 cells): 5.89
inhibition at 1.1 µM (MNT‐1 cells): 27.2%
inhibition at 3.3 µM (MNT‐1 cells): 62.2%
inhibition at 10 µM (MNT‐1 cells): 76.5%
pIC50 (human tyrosinase (hTYR)): 6.48
inhibition at 0.4 µM (human tyrosinase (hTYR); at 0.4 μM): 53.5%
pIC50 (MelanoDerm skin model): 6.05
pIC50 (hTYR enzyme): 5.96

OC[C@H]1O[C@@H](Oc2ccc(O)cc2)[C@H](O)[C@@H](O)[C@@H]1O [arbutin]
inhibitory effect on hTYR at maximum tested concentration (human tyrosinase (hTYR)): no significant inhibitory effects

CC(c1ccccc1)c1ccc(O)cc1O (centres unmarked) [compound 377, phenethyl resorcinol]
pIC50 (human tyrosinase (hTYR)): 4.67
inhibitory activity against hTYR compared to the control (human tyrosinase (hTYR); at 0.4 μM): 2.7%
NRF2 signaling pathway activation (luciferase reporter) [1]: no effect on NRF2 activation

CC1(C)C=Cc2c(ccc3c2OC[C@@H](c2ccc(O)cc2O)C3)O1 [glabridin]
inhibitory effect on hTYR at maximum tested concentration (human tyrosinase (hTYR)): no significant inhibitory effects

Oc1ccc(O)cc1 [hydroquinone]
inhibitory effect on hTYR at maximum tested concentration (human tyrosinase (hTYR)): no significant inhibitory effects
NRF2 signaling pathway activation (luciferase reporter) [1]: no effect on NRF2 activation

NC(=O)c1cccnc1 [nicotinamide]
inhibitory effect on hTYR at maximum tested concentration (human tyrosinase (hTYR)): no significant inhibitory effects

Oc1ccc(/C=C/c2cc(O)cc(O)c2)cc1 [resveratrol]
pIC50 (human tyrosinase (hTYR)): 5.22
inhibition at 0.4 µM (human tyrosinase (hTYR); at 0.4 μM): 13.4%
